The record followed here is patent US8263592B2, “Equilibrative nucleoside transporter ENT1 inhibitors” (Janssen Pharmaceutica NV, priority 2007, dated 2012).

Structures can show the parent of a compound that is named as a salt.

The target in data set [1] is T1, human ENT1 transporter (Homo sapiens, UniProt Q99808).
T1 construct: with washed red blood cells diluted 1:200 in assay buffer; from tissue; host or cells: human erythrocytes (washed red blood cells from whole blood)
T1 sequence (Q99808 1-456): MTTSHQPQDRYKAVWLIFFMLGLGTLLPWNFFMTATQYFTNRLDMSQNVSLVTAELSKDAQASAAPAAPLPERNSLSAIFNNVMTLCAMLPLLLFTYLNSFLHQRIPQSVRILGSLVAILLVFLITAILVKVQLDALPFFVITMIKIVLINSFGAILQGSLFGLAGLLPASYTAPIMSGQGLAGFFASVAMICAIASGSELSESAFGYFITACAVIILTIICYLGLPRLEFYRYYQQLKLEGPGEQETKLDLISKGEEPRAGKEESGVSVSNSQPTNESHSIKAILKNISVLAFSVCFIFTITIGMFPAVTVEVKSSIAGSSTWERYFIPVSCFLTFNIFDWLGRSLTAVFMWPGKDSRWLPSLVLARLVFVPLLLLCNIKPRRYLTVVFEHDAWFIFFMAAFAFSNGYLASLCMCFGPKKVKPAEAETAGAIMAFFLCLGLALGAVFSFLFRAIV
Put plainly: hENT1-NBMPR-ERYTH binding assay ([3H]NBMPR, human erythrocytes). To be noted: [3H]NBMPR 1 nM, washed human red blood cells 1:200, 30 minutes at room temperature; pIC50=-log(IC50); read-out: pIC50 values for ENT1 transporter inhibition (converted). The procedure: D. Pharmacological Data D.1hENT1-NBMPR-ERYTH Assay
The affinity of compounds to the human ENT1 transporter was determined in a binding assay using [^3H]NBMPR (19.9 Ci/mmol) from Moravek Biochemicals (Brea, Calif.). Erythrocytes were isolated from freshly isolated EDTA anti-coagulated human blood. 4 ml human whole blood was diluted in 11 ml wash buffer (20 mM MOPS, 130 mM NaCl, pH 7.4) and centrifuged at 800 g for 5 minutes. Erythrocytes were washed two times with wash buffer by centrifugation at 800 g for 5 minutes and then resuspended in wash buffer to the original whole blood volume and stored at −80° C. Binding experiments were performed at apparent binding equilibrium (30 minutes incubation at room temperature) with washed red blood cells diluted 1:200 in assay buffer (20 mM Tris, 140 mM NaCl, […], 2 mM MgCl2, 0.1 mM EDTA, 5 mM Glucose, pH 7.4) and 1 nM of radioligand. Test compounds were pre-incubated with the red blood cells for 30 minutes at room temperature. Non-specific binding was estimated in the presence of 1 μM Draflazine. The incubation was stopped by rapid filtration using Unifilter-96 GF/C filter plates on a 96-well PerkinElmer Filtermate harvester followed by three washes with ice-cold assay buffer. Bound radioactivity was determined by liquid scintillation counting (Topcount, (PerkinElmer)).

Regarding `CN1CCC(Oc2cc3c(cc2Cl)C(=O)NC2(CCN(CCNC(=O)c4c(Cl)cccc4Cl)CC2)O3)CC1` [Compound 26], the IC50 in data set [1] was 11 nM.
On the same count and under the same terms, with `CC(=O)N1CCC(Oc2cc3c(cc2Cl)C=CC2(CCN(CCNC(=O)c4c(Cl)cccc4Cl)CC2)O3)CC1` [Compound 108] the figure was 0.0447 nM.
For orientation: melting point means the temperature, or range, at which the solid turns liquid. For the molecule `COC(=O)[C@H]1CC[C@H](Oc2cc3c(cc2C)C(=O)CC2(CCN(CCNC(=O)c4c(Cl)cccc4Cl)CC2)O3)CC1` (as salt: oxalate) [Compound 199], the melting point amounted to 191.24 °C.
On to `CC(C)Nc1ccc2c(c1)OC1(CCN(CCNC(=O)c3c(Cl)cccc3Cl)CC1)NC2=O` [Compound 3], for which the IC50 in data set [1] is 4.27 nM.
Turning to `O=C1NC2(CCN(CCNC(=O)c3c(Cl)cccc3Cl)CC2)Oc2cc(OC3CCNCC3)c(Cl)cc21` [Compound 23], the IC50 in data set [1] was 10.2 nM.
`Nc1ccc2c(c1Cl)OC1(CCN(CCNC(=O)c3c(Cl)cccc3Cl)CC1)CC2=O` [Compound 130]: the melting point worked out at 236.63 °C. Further, in data set [1], the IC50 was 9.77 nM.
As to `CNc1cc2c(cc1Cl)CCC1(CCN(CCNC(=O)c3c(Cl)cccc3Cl)CC1)O2` [Compound 239], the IC50 in data set [1] was 1.53 nM.
In the case of `COC(=O)[C@H]1CC[C@H](Oc2cc3c(cc2C)C(=O)CC2(CCN(CCNC(=O)c4c(Cl)cccc4Cl)CC2)O3)CC1` [Compound 199], the IC50 in data set [1] is 0.343 nM.
Take `O=C1CC2(CCN(CCNC(=O)c3c(Cl)cccc3Cl)CC2)Oc2ccccc21` [Compound 45]: the melting point lay within 197.7 to 198.6 °C. In addition, in data set [1], the IC50 was 417 nM.
With `O=C1CC2(CCN(CCNC(=O)c3c(Cl)cccc3Cl)CC2)Oc2c1ccc(NC1CCCC1)c2Cl` [Compound 208], the IC50 in data set [1] is 1.51 nM.
In turn, `O=C1CC2(CCN(CCNC(=O)c3c(Cl)cccc3Cl)CC2)Oc2cc(O)ccc21` [Compound 93] returned a melting point of 209.19 °C. In addition, the IC50 in data set [1] is 120 nM.
Regarding `COCCCNc1cc2c(cc1C)C(=O)CC1(CCN(CCNC(=O)c3c(Cl)cccc3Cl)CC1)O2` [Compound 133], the IC50 in data set [1] was 1.82 nM.
`COCCCNc1cc2c(cc1C)C(=O)CC1(CCN(CCNC(=O)c3c(Cl)cccc3Cl)CC1)O2` (as salt: oxalate) [Compound 133] showed a melting point of 157.06 °C.
Turning to `CC(=O)N1CCC(Nc2cc3c(cc2Cl)C(=O)NC2(CCN(CCNC(=O)c4c(Cl)cccc4Cl)CC2)O3)CC1` [Compound 96], the melting point was 238.27 °C. The IC50 in data set [1] is 0.776 nM.
On to `COCNc1cc2c(cc1Cl)C(=O)NC1(CCN(CCNC(=O)c3c(Cl)cccc3Cl)CC1)O2` [Compound 2], for which the IC50 in data set [1] was 6.46 nM.
The molecule `CCCCNc1ccc2c(c1)C(=O)CC1(CCN(CCNC(=O)c3c(Cl)cccc3Cl)CC1)O2` [Compound 97] registered a melting point of 153.71 to 156.93 °C. Further, the IC50 in data set [1] is 12 nM.
The like results for `CC(=O)N1CCC(Oc2cc3c(cc2Cl)C(=O)NC2(CCN(CCNC(=O)c4c(Cl)cccc4Cl)CC2)O3)CC1` [Compound 27] were, in that order, 146.87 °C and 0.776 nM.
As for `CNCCCNc1cc2c(cc1Cl)C(=O)NC1(CCN(CCNC(=O)c3c(Cl)cccc3Cl)CC1)O2` [Compound 43], the IC50 in data set [1] is 89.1 nM.
As to `Nc1cc2c(cc1Cl)C(=O)NC1(CCN(CCNC(=O)c3c(Cl)cccc3Cl)CC1)O2` [Compound 1], the melting point was 245.39 °C. The IC50 in data set [1] was 89.1 nM.
Consider `Cc1cc2c(cc1NC1CCCC1)OC1(CCN(CCNC(=O)c3c(Cl)cccc3Cl)CC1)CC2=O` [Compound 127], for which the IC50 in data set [1] was 0.776 nM.
In turn, `Nc1cc2c(cc1Cl)CCC1(CCN(CCNC(=O)c3c(Cl)cccc3Cl)CC1)O2` [Compound 10] displayed a melting point of 191.14 °C. In addition, the IC50 in data set [1] is 18.6 nM.
Regarding `CC(=O)N1CCC(Oc2cc3c(cc2Cl)CCC2(CCN(CCNC(=O)c4c(Cl)cccc4Cl)CC2)O3)CC1` [Compound 117], in data set [1], the IC50 is 0.589 nM.
`Cc1cc(OC2CCCC2)c2c(c1)C(=O)CC1(CCN(CCNC(=O)c3c(Cl)cccc3Cl)CC1)O2` [Compound 189] displayed a melting point of 135.95 °C. Besides, the IC50 in data set [1] is 2.57 nM.
Consider `Cc1c(O)ccc2c1OC1(CCN(CCNC(=O)c3c(Cl)cccc3Cl)CC1)CC2=O` [Compound 91], for which the IC50 in data set [1] is 2.88 nM.
On the same count and under the same terms, with `COC(=O)[C@H]1CC[C@@H](Oc2cc3c(cc2C)C(=O)CC2(CCN(CCNC(=O)c4c(Cl)cccc4Cl)CC2)O3)CC1` [Compound 222] the figure was 0.531 nM.
Regarding `CC(C)(C)OC(=O)N1CCC(Oc2cc3c(cc2Cl)C(=O)NC2(CCN(CCNC(=O)c4c(Cl)cccc4Cl)CC2)O3)CC1` [Compound 22], the melting point was 172.85 °C. Also, the IC50 in data set [1] is 0.224 nM.
For `O=C1NC2(CCN(CCNC(=O)c3c(Cl)cccc3Cl)CC2)Oc2c1cc(Cl)cc2N1CCOCC1` [Compound 205], the melting point was determined as 245.16 °C. The IC50 in data set [1] was 107 nM.
In the case of `O=C1NC2(CCN(CCNC(=O)c3c(Cl)cccc3Cl)CC2)Oc2c(NC3CCCC3)cc(Cl)cc21` [Compound 223], the melting point is 238.02 °C. Moreover, the IC50 in data set [1] was 3.8 nM.
For `Cc1cccc(C)c1C(=O)NCCN1CCC2(CC1)NC(=O)c1cc(Cl)c(OC(C)C)cc1O2` [Compound 151] the same measures were 201.61 to 204.2 °C and 22.9 nM.
For `Cc1cc2c(cc1NCCCO)OC1(CCN(CCNC(=O)c3c(Cl)cccc3Cl)CC1)CC2=O` [Compound 141], the IC50 in data set [1] is 3.72 nM.
The molecule `Cc1c(O)ccc2c1OC1(CCN(CCNC(=O)c3c(Cl)cccc3Cl)CC1)CC2=O` (as salt: hydrochloric acid salt) [Compound 91] gave a melting point of 187.06 °C.
